According to patent publication US20090068290A1, “BIFEPRUNOX DOSES FOR TREATING SCHIZOPHRENIA” (priority 2006, published 2009):

How the values were obtained:
Assay type in all cases: in vivo, human
[1] = tested on: adult subjects with schizophrenia; assay: BPRS psychosis cluster score, Clinical Study Two; conditions: for BPRS psychosis cluster score, treatment effect (bifeprunox—placebo): Endpoint LOCF; for mean change (SD) from Baseline to Endpoint in BPRS psychosis cluster score: ITT
Description: Rating scale assessments were performed weekly, except for week 5, to measure the change from baseline to endpoint of the PANSS total score. Other assessments included: PANSS positive symptom subscale score, PANSS negative symptom subscale score, PANSS general pschopathology subscale score, BPRS total score, BPRS psychosis score, the CGI-S score, the CGI-I score, responder rates based on the PANSS total score, and the Calgary Depression Scale for Schizophrenia (CDSS). […]
(§1) Subjects who completed this study had the option to continue in the long-term. […] Risperidone-treated subjects were titrated from 2 mg to 6 mg daily over a three-day period and were subsequently maintained at 6 mg/day for the remainder of the treatment period. […] Blood samples were also obtained at Screening/Baseline, Week 3, and Week 6 for clinical laboratory assessments.

[2] = tested on: adult subjects with schizophrenia; assay: Adverse events (TEAE, SAE, special interest, EPS-related TEAE), Clinical Study Two
Description: as §1

[3] = tested on: adult subjects with schizophrenia; assay: BPRS psychosis cluster score, Clinical Study Three; conditions: for Change from Baseline in BPRS Psychosis Cluster Score, Mean (SD) / Change from Baseline in BPRS Psychosis Cluster Score, Median / Change from Baseline in BPRS Psychosis Cluster Score, Trt Effect (bifeprunox—placebo) / mean change (SD) from Baseline to Endpoint in BPRS psychosis cluster score: LOCF; for Change from Baseline in BPRS Psychosis Cluster Score, Mean (SD) / Change from Baseline in BPRS Psychosis Cluster Score, Median / Change from Baseline in BPRS Psychosis Cluster Score, Trt Effect (bifeprunox—placebo): ITT population; for BPRS psychosis cluster score, treatment effect (bifeprunox—placebo): Endpoint LOCF; for mean change (SD) from Baseline to Endpoint in BPRS psychosis cluster score: ITT
Description: SECONDARY OBJECTIVES To assess the efficacy of bifeprunox in treating schizophrenia using the Positive Symptom sub-scale score of the PANSS, the Negative Symptom sub-scale score of the PANSS, the General Psychopathology sub-scale of the PANSS, Brief Psychiatric Rating Scale (BPRS) total score derived from the PANSS, BPRS psychosis score derived from the PANSS, the Clinical Global Impression Severity of Illness score (CGI-S), the Clinical Global Impression Improvement score (CGI-I), CGI-I responder rate, PANSS responder rate based on the PANSS total score, Calgary Depression Scale for Schizophrenia (CDSS), and Subject Satisfaction rating.
There were four treatment arms in this study, approximately 144 subjects per arm. […] After completing the Single-Blind Placebo Lead-in Period of at least three days, bifeprunox-treated subjects were titrated from 0.25 mg up to 20 mg/day or 30 mg/day according to a standardized titration scheme over a seven- or eight-day period, respectively. When the assigned dose was reached, subjects were maintained at that dose for the remainder of the six week treatment period. […] Subjects were hospitalized (if not already inpatients) after eligibility for study entry was verified, starting from the Screening Visit until at least 10 days after Baseline. Subjects could be hospitalized longer than 10 days if considered medically necessary by the Investigator. Rating scale assessments for efficacy and abnormal movement disorders were done weekly except for Week 5. […] Subject satisfaction with study medication was assessed at Week 6.

[4] = Bifeprunox 40 mg, Week 2, LOCF, ITT population
[5] = Bifeprunox 40 mg, Week 3, LOCF, ITT population
[6] = Bifeprunox 40 mg, Week 4, LOCF, ITT population
[7] = Bifeprunox 40 mg, Week 6/Endpoint, LOCF, ITT population
[8] = Bifeprunox 20 mg, Week 6/Endpoint
[9] = Bifeprunox 30 mg, Week 6/Endpoint

O=c1[nH]c2cccc(N3CCN(Cc4cccc(-c5ccccc5)c4)CC3)c2o1 [Bifeprunox, 7-[4-([1,1′-biphenyl]-3-ylmethyl)-1-piperazinyl]-2(3H)-benzoxazolone]
Change from Baseline in BPRS Psychosis Cluster Score, Mean (SD) [1, 4]: −2.2 (3.5)
Change from Baseline in BPRS Psychosis Cluster Score, Median [1, 4]: −2
Change from Baseline in BPRS Psychosis Cluster Score, Mean (SD) [1, 5]: −2.5 (4.0)
Change from Baseline in BPRS Psychosis Cluster Score, Median [1, 5]: −2
Change from Baseline in BPRS Psychosis Cluster Score, Mean (SD) [1, 6]: −2.5 (4.2)
Change from Baseline in BPRS Psychosis Cluster Score, Median [1, 6]: −1
Change from Baseline in BPRS Psychosis Cluster Score, Mean (SD) [1, 7]: −2.6 (4.4)
Change from Baseline in BPRS Psychosis Cluster Score, Median [1, 7]: −2
Change from Baseline in BPRS Psychosis Cluster Score, Trt Effect (bifeprunox—placebo) [1, 7]: −1.0
BPRS psychosis cluster score, treatment effect (bifeprunox—placebo) ([1]; bifeprunox 30 mg): −1.4
mean change (SD) from Baseline to Endpoint in BPRS psychosis cluster score ([1]; bifeprunox 30 mg, LOCF): −3.2 (4.2)
BPRS psychosis cluster score, treatment effect (bifeprunox—placebo) ([1]; bifeprunox 40 mg): −1.0
mean change (SD) from Baseline to Endpoint in BPRS psychosis cluster score ([1]; bifeprunox 40 mg, LOCF): −2.6 (4.4)
AKATHISIA, % ([2]; BX 30 mg): (3%)
BALANCE DISORDER, % ([2]; BX 30 mg): (<1%)
COGWHEEL RIGIDITY, % ([2]; BX 30 mg): (<1%)
DISTURBANCE IN ATTENTION, % ([2]; BX 30 mg): (<1%)
DIZZINESS, % ([2]; BX 30 mg): (8%)
DYSARTHRIA, % ([2]; BX 30 mg): (<1%)
DYSGEUSIA, % ([2]; BX 30 mg): (<1%)
DYSKINESIA, % ([2]; BX 30 mg): (1%)
Dystonia, % ([2]; BX 30 mg): (2%)
EXTRAPYRAMIDAL DISORDER, % ([2]; BX 30 mg): (5%)
HEADACHE NOS, % ([2]; BX 30 mg): (12%)
MIGRAINE, % ([2]; BX 30 mg): 1 (<1%)
NERVOUS SYSTEM DISORDERS, % ([2]; BX 30 mg): (36%)
PARAESTHESIA, % ([2]; BX 30 mg): 1 (<1%)
PSYCHOMOTOR HYPERACTIVITY, % ([2]; BX 30 mg): 1 (<1%)
SEDATION, % ([2]; BX 30 mg): 5%
Syncope, % ([2]; BX 30 mg): 1 (<1%)
TARDIVE DYSKINESIA, % ([2]; BX 30 mg): < 1%
TREMOR, % ([2]; BX 30 mg): 6%
AKATHISIA, % ([2]; BX 40 mg): (7%)
Choreoathetosis, % ([2]; BX 40 mg): (<1%)
DIZZINESS, % ([2]; BX 40 mg): (14%)
DYSKINESIA, % ([2]; BX 40 mg): (3%)
Dystonia, % ([2]; BX 40 mg): (2%)
EXTRAPYRAMIDAL DISORDER, % ([2]; BX 40 mg): (5%)
HEADACHE NOS, % ([2]; BX 40 mg): (17%)
NERVOUS SYSTEM DISORDERS, % ([2]; BX 40 mg): (37%)
SEDATION, % ([2]; BX 40 mg): 3%
SOMNOLENCE, % ([2]; BX 40 mg): 1 (<1%)
TARDIVE DYSKINESIA, % ([2]; BX 40 mg): 1 (<1%)
TREMOR, % ([2]; BX 40 mg): 7%
safety and tolerability ([2]; bifeprunox 30 mg and 40 mg, 6 weeks): safe and well tolerated
incidence of severe TEAE of schizophrenia ([2]; bifeprunox groups (30, 40 mg)): 3%
Change from Baseline in BPRS Psychosis Cluster Score, Mean (SD) ([3]; Bifeprunox 20 mg, Week 1): −1.4 (2.3)
Change from Baseline in BPRS Psychosis Cluster Score, Median ([3]; Bifeprunox 20 mg, Week 1): −1
Change from Baseline in BPRS Psychosis Cluster Score, Mean (SD) ([3]; Bifeprunox 20 mg, Week 2): −2.1 (2.9)
Change from Baseline in BPRS Psychosis Cluster Score, Median ([3]; Bifeprunox 20 mg, Week 2): −2
Change from Baseline in BPRS Psychosis Cluster Score, Mean (SD) ([3]; Bifeprunox 20 mg, Week 3): −2.6 (3.4)
Change from Baseline in BPRS Psychosis Cluster Score, Median ([3]; Bifeprunox 20 mg, Week 3): −3
Change from Baseline in BPRS Psychosis Cluster Score, Median ([3]; Bifeprunox 20 mg, Week 4): −3
Change from Baseline in BPRS Psychosis Cluster Score, Mean (SD) [3, 8]: −3.1 (3.9)
Change from Baseline in BPRS Psychosis Cluster Score, Median [3, 8]: −3
Change from Baseline in BPRS Psychosis Cluster Score, Trt Effect (bifeprunox—placebo) [3, 8]: −0.6
Change from Baseline in BPRS Psychosis Cluster Score, Mean (SD) ([3]; Bifeprunox 30 mg, Week 1): −1.7 (2.5)
Change from Baseline in BPRS Psychosis Cluster Score, Median ([3]; Bifeprunox 30 mg, Week 1): −2
Change from Baseline in BPRS Psychosis Cluster Score, Mean (SD) ([3]; Bifeprunox 30 mg, Week 2): −2.3 (3.3)
Change from Baseline in BPRS Psychosis Cluster Score, Median ([3]; Bifeprunox 30 mg, Week 2): −2
Change from Baseline in BPRS Psychosis Cluster Score, Mean (SD) ([3]; Bifeprunox 30 mg, Week 3): −2.7 (3.8)
Change from Baseline in BPRS Psychosis Cluster Score, Median ([3]; Bifeprunox 30 mg, Week 3): −3
Change from Baseline in BPRS Psychosis Cluster Score, Mean (SD) ([3]; Bifeprunox 30 mg, Week 4): −3.0 (4.0)
Change from Baseline in BPRS Psychosis Cluster Score, Median ([3]; Bifeprunox 30 mg, Week 4): −3
Change from Baseline in BPRS Psychosis Cluster Score, Mean (SD) [3, 9]: −3.2 (4.4)
Change from Baseline in BPRS Psychosis Cluster Score, Median [3, 9]: −3
Change from Baseline in BPRS Psychosis Cluster Score, Trt Effect (bifeprunox—placebo) [3, 9]: −0.5
BPRS psychosis cluster score, treatment effect (bifeprunox—placebo) ([3]; bifeprunox 20 mg): −0.6
mean change (SD) from Baseline to Endpoint in BPRS psychosis cluster score ([3]; bifeprunox 20 mg): −3.1 (3-9)
BPRS psychosis cluster score, treatment effect (bifeprunox—placebo) ([3]; bifeprunox 30 mg): −0.5
mean change (SD) from Baseline to Endpoint in BPRS psychosis cluster score ([3]; bifeprunox 30 mg): −3.2 (4.4)
